A word on the EC50: it is the concentration at which the effect is half-maximal. Lower therefore signals greater potency.

We go through 32 compounds from patent publication US11608335B2, “Somatostatin modulators and uses thereof” (CRINETICS PHARMACEUTICALS, INC., priority 2018, dated 2023).

In one assay the target is human somatostatin receptor subtype 5 (Homo sapiens, UniProt P35346). Description: cAMP assay for SST5R (inhibition of cAMP via human SST5 receptor).
Chain of human somatostatin receptor subtype 5 (P35346 whole entry): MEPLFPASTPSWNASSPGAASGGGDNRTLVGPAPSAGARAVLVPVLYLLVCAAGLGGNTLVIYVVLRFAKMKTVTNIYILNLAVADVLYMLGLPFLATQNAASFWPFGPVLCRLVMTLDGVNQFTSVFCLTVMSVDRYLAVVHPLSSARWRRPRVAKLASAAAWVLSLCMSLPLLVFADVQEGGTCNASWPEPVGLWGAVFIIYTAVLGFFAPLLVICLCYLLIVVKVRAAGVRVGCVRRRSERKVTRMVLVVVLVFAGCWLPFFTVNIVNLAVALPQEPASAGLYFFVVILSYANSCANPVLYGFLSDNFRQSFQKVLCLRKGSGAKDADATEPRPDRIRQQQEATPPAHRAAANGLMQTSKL
Conditions: not given
Background: Cyclic AMP is a second messenger, typically raised through Gs and lowered through Gi signalling.
For the compound `N#Cc1cccc(-c2cncc(-c3nc4cccc(F)c4[nH]3)c2N2C[C@@H](N)[C@H](c3ccccc3)C2)c1` (racemic) [Compound 2-56, 3-{4-[trans-3-amino-4-phenylpyrrolidin-1-yl]-5-(4-fluoro-1H-1,3-benzodiazol-2-yl)pyridin-3-yl}benzonitrile], the EC50 was 100 to 1000 nM.

`N#Cc1cccc(-c2cncc(-c3nc4cccc(F)c4[nH]3)c2N2C[C@@H](N)[C@@H](O)C2)c1` (racemic) [Compound 2-68, 3-{4-[cis-3-amino-4-hydroxypyrrolidin-1-yl]-5-(4-fluoro-1H-1,3-benzodiazol-2-yl)pyridin-3-yl}benzonitrile] had an EC50 of 10 to 100 nM. Turning to `N#Cc1cccc(-c2cncc(-c3nc4c(F)cccc4[nH]3)c2N2C[C@@H](N)[C@H](C(N)=O)C2)c1` (racemic) [Compound 2-69, trans-4-amino-1-[3-(3-cyanophenyl)-5-(4-fluoro-1H-1,3-benzodiazol-2-yl)pyridin-4-yl]pyrrolidine-3-carboxamide], the EC50 was > 1000 nM. On the same count and under the same terms, then `N#Cc1cccc(-c2cncc(-c3nc4c(F)cccc4[nH]3)c2N2C[C@@H](N)[C@H](O)C2)c1` (racemic) [Compound 2-81, 3-{4-[trans-3-amino-4-hydroxypyrrolidin-1-yl]-5-(4-fluoro-1H-1,3-benzodiazol-2-yl)pyridin-3-yl}benzonitrile], with 10 to 100 nM. As to `N#Cc1cccc(-c2cncc(-c3nc4cccc(F)c4[nH]3)c2N2C[C@H](CO)[C@@H](N)C2)c1` (racemic) [Compound 2-89, 3-{4-[trans-3-amino-4-(hydroxymethyl)pyrrolidin-1-yl]-5-(4-fluoro-1H-1,3-benzodiazol-2-yl)pyridin-3-yl}benzonitrile], the concentration giving a half-maximal response (EC50) fell in the range of 10 to 100 nM.

In the case of `Cc1cc(F)cc(-c2cncc(-c3nc4cc(C#N)ccc4[nH]3)c2N2CC(CN)C2)c1` [Compound 1-8, 2-{4-[3-(aminomethyl)azetidin-1-yl]-5-(3-fluoro-5-methylphenyl)pyridin-3-yl}-1H-1,3-benzodiazole-5-carbonitrile], the EC50 fell in the range of 100 to 1000 nM. On the same count and under the same terms, then `COc1ccc2[nH]c(-c3cncc(-c4cc(C)cc(F)c4)c3N3CC(CN)C3)nc2c1` [Compound 1-12, 1-{1-[3-(3-fluoro-5-methylphenyl)-5-(5-methoxy-1H-1,3-benzodiazol-2-yl)pyridin-4-yl]azetidin-3-yl}methanamine], with 100 to 1000 nM; and `Cc1cc(F)cc(-c2cncc(-c3nc4cc(F)c(F)cc4[nH]3)c2N2CC(CN)C2)c1` [Compound 1-13, 1-{1-[3-(5,6-difluoro-1H-1,3-benzodiazol-2-yl)-5-(3-fluoro-5-methylphenyl)pyridin-4-yl]azetidin-3-yl}methanamine], with 10 to 100 nM. The same measure, in the same setting: next, `Cc1cc(F)cc(-c2cncc(-c3nc4cc(F)c(Cl)cc4[nH]3)c2N2CC(CN)C2)c1` [Compound 1-14, 1-{1-[3-(5-chloro-6-fluoro-1H-1,3-benzodiazol-2-yl)-5-(3-fluoro-5-methylphenyl)pyridin-4-yl]azetidin-3-yl}methanamine]: 10 to 100 nM. In turn, `COc1cc(F)cc2nc(-c3cncc(-c4cc(C)cc(F)c4)c3N3CC(CN)C3)[nH]c12` [Compound 1-15, 1-{1-[3-(6-fluoro-4-methoxy-1H-1,3-benzodiazol-2-yl)-5-(3-fluoro-5-methylphenyl)pyridin-4-yl]azetidin-3-yl}methanamine] showed an EC50 of 10 to 100 nM. Still for that read-out and setting: then `Cc1cc(F)cc(-c2cncc(-c3nc4cc(C#N)cc(F)c4[nH]3)c2N2CC(CN)C2)c1` [Compound 1-16, 2-{4-[3-(aminomethyl)azetidin-1-yl]-5-(3-fluoro-5-methylphenyl)pyridin-3-yl}-4-fluoro-1H-1,3-benzodiazole-6-carbonitrile], with 100 to 1000 nM; and `Cc1cc(F)cc(-c2cncc(-c3nc4cc(C#N)c(F)cc4[nH]3)c2N2CC(CN)C2)c1` [Compound 1-17, 2-{4-[3-(aminomethyl)azetidin-1-yl]-5-(3-fluoro-5-methylphenyl)pyridin-3-yl}-6-fluoro-1H-1,3-benzodiazole-5-carbonitrile], with 100 to 1000 nM; and `Cc1cc(F)cc(-c2cncc(-c3nc4cc(Cl)cc(F)c4[nH]3)c2N2CC(CN)C2)c1` [Compound 1-18, 1-{1-[3-(6-chloro-4-fluoro-1H-1,3-benzodiazol-2-yl)-5-(3-fluoro-5-methylphenyl)pyridin-4-yl]azetidin-3-yl}methanamine], with 10 to 100 nM. `Cc1cc(C)cc(-c2cncc(-c3nc4cc(F)cc(F)c4[nH]3)c2N2CC(CN)C2)c1` [Compound 1-19, 1-{1-[3-(4,6-difluoro-1H-1,3-benzodiazol-2-yl)-5-(3,5-dimethylphenyl)pyridin-4-yl]azetidin-3-yl}methanamine]: the EC50 was 10 to 100 nM. On the same count and under the same terms, next, `Cc1cc(Cl)cc(-c2cncc(-c3nc4cc(F)cc(F)c4[nH]3)c2N2CC(CN)C2)c1` [Compound 1-20, 1-{1-[3-(3-chloro-5-methylphenyl)-5-(4,6-difluoro-1H-1,3-benzodiazol-2-yl)pyridin-4-yl]azetidin-3-yl}methanamine]: < 10 nM; `NCC1CN(c2c(-c3cc(F)cc(F)c3)cncc2-c2nc3cc(F)cc(F)c3[nH]2)C1` [Compound 1-21, 1-{1-[3-(4,6-difluoro-1H-1,3-benzodiazol-2-yl)-5-(3,5-difluorophenyl)pyridin-4-yl]azetidin-3-yl}methanamine]: < 10 nM; `Cc1cc(F)cc(-c2cncc(-c3nc4cnccc4[nH]3)c2N2CC(CN)C2)c1` [Compound 1-22, 1-{1-[3-(3-fluoro-5-methylphenyl)-5-{3H-imidazo[4,5-c]pyridin-2-yl}pyridin-4-yl]azetidin-3-yl}methanamine]: 100 to 1000 nM.

For `Cc1cc(F)cc(-c2cncc(-c3nc4cccnc4[nH]3)c2N2CC(CN)C2)c1` [Compound 1-23, 1-{1-[3-(3-fluoro-5-methylphenyl)-5-{1H-imidazo[4,5-b]pyridin-2-yl}pyridin-4-yl]azetidin-3-yl}methanamine], the 50% effective concentration (EC50) fell in the range of 100 to 1000 nM. Still for that read-out and setting: then `Cc1cc(F)cc(-c2cncc(-c3nc4c(F)cccc4n3C)c2N2CC(CN)C2)c1` [Compound 1-24, 1-{1-[3-(4-fluoro-1-methyl-1H-1,3-benzodiazol-2-yl)-5-(3-fluoro-5-methylphenyl)pyridin-4-yl]azetidin-3-yl}methanamine], with 10 to 100 nM; and `Cc1cc(F)cc(-c2cncc(-c3nc4cccc(F)c4n3C)c2N2CC(CN)C2)c1` [Compound 1-25, 1-{1-[3-(7-Fluoro-1-methyl-1H-1,3-benzodiazol-2-yl)-5-(3-fluoro-5-methylphenyl)pyridin-4-yl]azetidin-3-yl}methanamine], with 10 to 100 nM; and `Cc1cc(F)cc(-c2cncc(-c3nc4cc(F)cc(F)c4[nH]3)c2N2CC(O)(CN)C2)c1` [Compound 1-26, 3-(aminomethyl)-1-[3-(4,6-difluoro-1H-1,3-benzodiazol-2-yl)-5-(3-fluoro-5-methylphenyl)pyridin-4-yl]azetidin-3-ol], with 100 to 1000 nM. On the same count and under the same terms, next, `NCC1CN(c2c(-c3ccccc3)cncc2-c2nc3c(F)cc(F)cc3[nH]2)C1` [Compound 1-27, 1-{1-[3-(4,6-difluoro-1H-1,3-benzodiazol-2-yl)-5-phenylpyridin-4-yl]azetidin-3-yl}methanamine]: 10 to 100 nM.

For `Cc1cccc(-c2cncc(-c3nc4c(F)cc(F)cc4[nH]3)c2N2CC(CN)C2)c1` [Compound 1-29, 1-{1-[3-(4,6-difluoro-1H-1,3-benzodiazol-2-yl)-5-(3-methylphenyl)pyridin-4-yl]azetidin-3-yl}methanamine], the EC50 is < 10 nM.

Compound `Cc1ccccc1-c1cncc(-c2nc3cc(F)cc(F)c3[nH]2)c1N1CC(CN)C1` [Compound 1-30, 1-{1-[3-(4,6-difluoro-1H-1,3-benzodiazol-2-yl)-5-(2-methylphenyl)pyridin-4-yl]azetidin-3-yl}methanamine] displayed an EC50 of 10 to 100 nM. Still for that read-out and setting: then `Cc1ccc(-c2cncc(-c3nc4cc(F)cc(F)c4[nH]3)c2N2CC(CN)C2)cc1` [Compound 1-31, 1-{1-[3-(4,6-difluoro-1H-1,3-benzodiazol-2-yl)-5-(4-methylphenyl)pyridin-4-yl]azetidin-3-yl}methanamine], with 10 to 100 nM. `Cc1cncc(-c2cncc(-c3nc4cc(F)cc(F)c4[nH]3)c2N2CC(CN)C2)c1` [Compound 1-32, 1-{1-[5-(4,6-difluoro-1H-1,3-benzodiazol-2-yl)-5′-methyl-[3,3′-bipyridin]-4-yl]azetidin-3-yl}methanamine] gave an EC50 of 100 to 1000 nM. The compound `Cc1cc(-c2cncc(-c3nc4cc(F)cc(F)c4[nH]3)c2N2CC(CN)C2)cc(C(F)(F)F)c1` [Compound 1-33, 1-{1-[3-(4,6-difluoro-1H-1,3-benzodiazol-2-yl)-5-[3-methyl-5-(trifluoromethyl)phenyl]pyridin-4-yl]azetidin-3-yl}methanamine] had a 50% effective concentration (EC50) of 100 to 1000 nM. As to `N#Cc1cc(F)cc(-c2cncc(-c3nc4cc(F)cc(F)c4[nH]3)c2N2CC(CN)C2)c1` [Compound 1-34, 3-{4-[3-(aminomethyl)azetidin-1-yl]-5-(4,6-difluoro-1H-1,3-benzodiazol-2-yl)pyridin-3-yl}-5-fluorobenzonitrile], the EC50 is < 10 nM. On to `NCC1CN(c2c(-c3ccc4cc[nH]c4c3)cncc2-c2nc3cc(F)cc(F)c3[nH]2)C1` [Compound 1-35, 1-{1-[3-(4,6-difluoro-1H-1,3-benzodiazol-2-yl)-5-(1H-indol-6-yl)pyridin-4-yl]azetidin-3-yl}methanamine], for which the EC50 was > 1000 nM. Take `NCC1CN(c2c(-c3nc4cc(F)cc(F)c4[nH]3)cncc2-c2cccc3cc[nH]c23)C1` [Compound 1-36, 1-{1-[3-(4,6-difluoro-1H-1,3-benzodiazol-2-yl)-5-(1H-indol-7-yl)pyridin-4-yl]azetidin-3-yl}methanamine]: the EC50 fell in the range of 10 to 100 nM. As to `NCC1CN(c2c(-c3cc(Cl)cc(C(F)(F)F)c3)cncc2-c2nc3cc(F)cc(F)c3[nH]2)C1` [Compound 1-40, 1-(1-{3-[3-chloro-5-(trifluoromethyl)phenyl]-5-(4,6-difluoro-1H-1,3-benzodiazol-2-yl)pyridin-4-yl}azetidin-3-yl)methanamine], the EC50 fell in the range of 10 to 100 nM.

The assay is the same for the next values; noted with them: SST5 over SST2, given as number (comparison compounds).
In the case of `COc1cc(Cl)cc2[nH]c(-c3cncc(-c4cc(C)cc(F)c4)c3N3CCC(N)CC3)nc12`, the “Fold selectivity for SST5 vs SST2” value turned out to be 0.00004.
